{"source": "ChEMBL document CHEMBL1275415", "about": "“The antimicrobial peptide NK-2, the core region of mammalian NK-lysin, kills intraerythrocytic Plasmodium falciparum” (Antimicrob Agents Chemother, 2008)", "key": {"[1]": {"system": "Plasmodium falciparum", "assay": "Antiplasmodial activity against Plasmodium falciparum 3D7 trophozoite infected in human RBC assessed as partial induction of hemolysis at 0.1 to 100 uM after 1 hrs by spectrophotometry in presence of 100 ug/ml annexin V and calcium", "type": "functional, organism-based"}, "[2]": {"system": "Plasmodium falciparum", "assay": "Antiplasmodial activity against Plasmodium falciparum 3D7 infected in human RBC assessed as permeabilization of plasma membrane at 10 uM after 20 to 120 min by sytox green dye uptake assay", "type": "functional, organism-based"}, "[3]": {"system": "Plasmodium falciparum", "assay": "Antiplasmodial activity against Plasmodium falciparum 3D7 trophozoite infected in human RBC assessed as partial induction of hemolysis at 0.1 to 100 uM after 1 hrs by spectrophotometry in presence of > 100 ug/ml annexin V and calcium", "type": "functional, organism-based"}, "[4]": {"system": "Plasmodium falciparum", "assay": "Antiplasmodial activity against Plasmodium falciparum 3D7 assessed as reduction in parasite viability at 6.2 uM after 45 hrs by fluorospectrometry", "type": "functional", "conditions": "3D7, 45 h"}, "[5]": {"system": "Plasmodium falciparum", "assay": "Antiplasmodial activity against Plasmodium falciparum 3D7 schizonts infected in human RBC assessed as induction of hemolysis at 5 to 20 uM after 2 hrs by spectrophotometry", "type": "functional, organism-based"}, "[6]": {"system": "Plasmodium falciparum", "assay": "Antiplasmodial activity against Plasmodium falciparum 3D7 trophozoites infected in human RBC assessed as induction of hemolysis at 10 uM after 90 min by spectrophotometry", "type": "functional, organism-based"}, "[7]": {"system": "Plasmodium falciparum", "assay": "Antiplasmodial activity against Plasmodium falciparum 3D7 infected in human RBC assessed as appearance of hemozoin crystals at 10 uM after 1 hrs by light microscopy", "type": "functional, organism-based"}, "[8]": {"system": "Plasmodium falciparum", "assay": "Antiplasmodial activity against Plasmodium falciparum 3D7 infected in human RBC assessed as permeabilization of plasma membrane at 5 uM after 20 to 120 min by sytox green dye uptake assay", "type": "functional, organism-based"}, "[9]": {"system": "Plasmodium falciparum", "assay": "Antiplasmodial activity against Plasmodium falciparum 3D7 trophozoites infected in human RBC assessed as induction of hemolysis at 5 to 20 uM after 2 hrs by spectrophotometry", "type": "functional, organism-based"}, "[10]": {"system": "Plasmodium falciparum", "assay": "Antiplasmodial activity against Plasmodium falciparum 3D7 assessed as reduction in parasite viability after 45 hrs by fluorospectrometry", "type": "functional, organism-based"}, "[11]": {"assay": "Cytotoxicity against human RBC assessed as induction of hemolysis at 5 to 20 uM after 2 hrs by spectrophotometry", "type": "cell-based", "conditions": "erythrocyte"}, "[12]": {"system": "Plasmodium falciparum", "assay": "Antiplasmodial activity against Plasmodium falciparum 3D7 infected in human RBC assessed as permeabilization of plasma membrane at > 20 uM after 20 to 120 min by sytox green dye uptake assay", "type": "functional, organism-based"}}, "note": "The source made the active and inactive calls. The rule behind the calls is not given here."}
{"substance": "H-KILRGVCKKIMRTFLRRISKDILTGKK-OH", "values": [{"measurement": "Activity", "setting": "[1]", "value": "Active"}, {"measurement": "Activity", "setting": "[2]", "value": "Active"}, {"measurement": "Activity", "setting": "[3]", "value": "inactive"}, {"measurement": "inhibition at 6.2 µM", "setting": "[4]", "value": 50, "unit": "%"}, {"measurement": "Activity", "setting": "[5]", "value": "Active"}, {"measurement": "Activity", "setting": "[6]", "value": "Active"}, {"measurement": "Activity", "setting": "[7]", "value": "Active"}, {"measurement": "Activity", "setting": "[8]", "value": "Active"}, {"measurement": "Activity", "setting": "[9]", "value": "Active"}, {"measurement": "inhibition", "setting": "[10]", "value": "Dose-dependent effect"}, {"measurement": "Activity", "setting": "[11]", "value": "Non-toxic"}, {"measurement": "Activity", "setting": "[12]", "value": "inactive"}]}
